# Test results published in PubChem BioAssay (NCI).
#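 Interpolation was linear, between the two tested concentrations surrounding the appropriate level; five concentrations were tested over 48 hours in 96-well plates. GI50 is the concentration that inhibits growth by half. TGI: total growth inhibition.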
# Legend:
# Experiment in all cases: NCI anticancer screen, dose series, 48 h
# SN12C renal = tested on: SN12C renal
# UO-31 renal = tested on: UO-31 renal
# MDA-MB-231 breast = tested on: MDA-MB-231 breast
# SK-MEL-2 melanoma = tested on: SK-MEL-2 melanoma
# SNB-19 CNS = tested on: SNB-19 CNS
# HT29 colon = tested on: HT29 colon
# MOLT-4 leukemia = tested on: MOLT-4 leukemia
# SF-539 CNS = tested on: SF-539 CNS
# M14 melanoma = tested on: M14 melanoma
# UACC-62 melanoma = tested on: UACC-62 melanoma
# LOX IMVI melanoma = tested on: LOX IMVI melanoma
# NCI-H460 lung = tested on: NCI-H460 lung
# T-47D breast = tested on: T-47D breast
# EKVX NSCLC = tested on: EKVX NSCLC
# DU-145 prostate = tested on: DU-145 prostate
# NCI/ADR-RES ovarian = tested on: NCI/ADR-RES ovarian
# 786-0 renal = tested on: 786-0 renal
# SW-620 colon = tested on: SW-620 colon
# TK-10 renal = tested on: TK-10 renal
# NCI-H522 lung = tested on: NCI-H522 lung
# OVCAR-5 ovarian = tested on: OVCAR-5 ovarian
# COLO 205 colon = tested on: COLO 205 colon
# HOP-62 NSCLC = tested on: HOP-62 NSCLC
# OVCAR-3 ovarian = tested on: OVCAR-3 ovarian
# PC-3 prostate = tested on: PC-3 prostate
# SK-OV-3 ovarian = tested on: SK-OV-3 ovarian
# ACHN renal = tested on: ACHN renal
# UACC-257 melanoma = tested on: UACC-257 melanoma
# U251 CNS = tested on: U251 CNS
# BT-549 breast = tested on: BT-549 breast
# CCRF-CEM leukemia = tested on: CCRF-CEM leukemia
# CAKI-1 renal = tested on: CAKI-1 renal
# RPMI-8226 leukemia = tested on: RPMI-8226 leukemia
# HCT-116 colon = tested on: HCT-116 colon
# HOP-92 NSCLC = tested on: HOP-92 NSCLC
# SF-295 CNS = tested on: SF-295 CNS
# SNB-75 CNS = tested on: SNB-75 CNS
# SR leukemia = tested on: SR leukemia
# HCT-15 colon = tested on: HCT-15 colon
# HCC-2998 colon = tested on: HCC-2998 colon
# RXF 393 renal = tested on: RXF 393 renal
# HS 578T breast = tested on: HS 578T breast
# KM12 colon = tested on: KM12 colon
# A498 renal = tested on: A498 renal
# OVCAR-4 ovarian = tested on: OVCAR-4 ovarian
# OVCAR-8 ovarian = tested on: OVCAR-8 ovarian
# MALME-3M melanoma = tested on: MALME-3M melanoma
# IGROV1 ovarian = tested on: IGROV1 ovarian
# K-562 leukemia = tested on: K-562 leukemia
# MDA-MB-435 = tested on: MDA-MB-435
# SK-MEL-5 melanoma = tested on: SK-MEL-5 melanoma
# SF-268 CNS = tested on: SF-268 CNS
# A549 NSCLC = tested on: A549 NSCLC
# HL-60(TB) leukemia = tested on: HL-60(TB) leukemia
# MCF7 breast = tested on: MCF7 breast
# SK-MEL-28 melanoma = tested on: SK-MEL-28 melanoma
structure (smiles),measurement,setting,value
CN1CCN(Cc2ccc(NC(=O)c3cncc(C#Cc4cnn5cccnc45)c3)cc2C(F)(F)F)CC1,GI50,SN12C renal,2.66 µM
same,TGI,SN12C renal,10.4 µM
same,GI50,UO-31 renal,2.28 µM
same,TGI,UO-31 renal,8.57 µM
same,GI50,MDA-MB-231 breast,1.39 µM
same,TGI,MDA-MB-231 breast,7.58 µM
same,GI50,SK-MEL-2 melanoma,1.04 µM
same,TGI,SK-MEL-2 melanoma,2.55 µM
same,GI50,SNB-19 CNS,4.05 µM
same,TGI,SNB-19 CNS,12.6 µM
same,GI50,HT29 colon,1.36 µM
same,TGI,HT29 colon,5.58 µM
same,GI50,MOLT-4 leukemia,2.13 µM
same,TGI,MOLT-4 leukemia,7.02 µM
same,GI50,SF-539 CNS,1.12 µM
same,TGI,SF-539 CNS,2.75 µM
same,GI50,M14 melanoma,1.06 µM
same,TGI,M14 melanoma,3.34 µM
same,GI50,UACC-62 melanoma,2.9 µM
same,TGI,UACC-62 melanoma,13.3 µM
same,GI50,LOX IMVI melanoma,1.23 µM
same,TGI,LOX IMVI melanoma,3.12 µM
same,GI50,NCI-H460 lung,2 µM
same,TGI,NCI-H460 lung,4.72 µM
same,GI50,T-47D breast,6.08 µM
same,TGI,T-47D breast,22 µM
same,GI50,EKVX NSCLC,5.01 µM
same,TGI,EKVX NSCLC,16.7 µM
same,GI50,DU-145 prostate,2.94 µM
same,TGI,DU-145 prostate,9.25 µM
same,GI50,NCI/ADR-RES ovarian,3.49 µM
same,TGI,NCI/ADR-RES ovarian,12.7 µM
same,GI50,786-0 renal,1.83 µM
same,TGI,786-0 renal,3.3 µM
same,GI50,SW-620 colon,1.67 µM
same,TGI,SW-620 colon,5.01 µM
same,GI50,TK-10 renal,3.99 µM
same,TGI,TK-10 renal,9.78 µM
same,GI50,NCI-H522 lung,1.71 µM
same,TGI,NCI-H522 lung,3.51 µM
same,GI50,OVCAR-5 ovarian,2.45 µM
same,TGI,OVCAR-5 ovarian,12.1 µM
same,GI50,COLO 205 colon,1.4 µM
same,TGI,COLO 205 colon,3.31 µM
same,GI50,HOP-62 NSCLC,2.75 µM
same,TGI,HOP-62 NSCLC,9.35 µM
same,GI50,OVCAR-3 ovarian,3.88 µM
same,TGI,OVCAR-3 ovarian,12.9 µM
same,GI50,PC-3 prostate,3.06 µM
same,TGI,PC-3 prostate,13.3 µM
same,GI50,SK-OV-3 ovarian,3.3 µM
same,TGI,SK-OV-3 ovarian,10.6 µM
same,GI50,ACHN renal,2.29 µM
same,TGI,ACHN renal,6.84 µM
same,GI50,UACC-257 melanoma,2.92 µM
same,TGI,UACC-257 melanoma,12.2 µM
same,GI50,U251 CNS,3.3 µM
same,TGI,U251 CNS,14.1 µM
same,GI50,BT-549 breast,4.63 µM
same,TGI,BT-549 breast,14.5 µM
same,GI50,CCRF-CEM leukemia,2.28 µM
same,TGI,CCRF-CEM leukemia,6.47 µM
same,GI50,CAKI-1 renal,1.8 µM
same,TGI,CAKI-1 renal,7.53 µM
same,GI50,RPMI-8226 leukemia,1.83 µM
same,TGI,RPMI-8226 leukemia,5.1 µM
same,GI50,HCT-116 colon,0.941 µM
same,TGI,HCT-116 colon,2.62 µM
same,GI50,HOP-92 NSCLC,0.376 µM
same,TGI,HOP-92 NSCLC,4 µM
same,GI50,SF-295 CNS,10.9 µM
same,TGI,SF-295 CNS,23.2 µM
same,GI50,SNB-75 CNS,2.84 µM
same,TGI,SNB-75 CNS,12.3 µM
same,GI50,SR leukemia,2.45 µM
same,TGI,SR leukemia,6.4 µM
same,GI50,HCT-15 colon,2.8 µM
same,TGI,HCT-15 colon,10.2 µM
same,GI50,HCC-2998 colon,2.4 µM
same,TGI,HCC-2998 colon,10.8 µM
same,GI50,RXF 393 renal,2.25 µM
same,TGI,RXF 393 renal,4.52 µM
same,GI50,HS 578T breast,2.65 µM
same,TGI,HS 578T breast,10.3 µM
same,GI50,KM12 colon,0.0255 µM
same,TGI,KM12 colon,4.38 µM
same,GI50,A498 renal,8.19 µM
same,TGI,A498 renal,19.8 µM
same,GI50,OVCAR-4 ovarian,2.88 µM
same,TGI,OVCAR-4 ovarian,13.1 µM
same,GI50,OVCAR-8 ovarian,2.87 µM
same,TGI,OVCAR-8 ovarian,10.4 µM
same,GI50,MALME-3M melanoma,0.322 µM
same,TGI,MALME-3M melanoma,1.83 µM
same,GI50,IGROV1 ovarian,2.12 µM
same,TGI,IGROV1 ovarian,7.63 µM
same,TGI,K-562 leukemia,1.32 µM
same,GI50,MDA-MB-435,2 µM
same,TGI,MDA-MB-435,8.71 µM
same,GI50,SK-MEL-5 melanoma,2.6 µM
same,TGI,SK-MEL-5 melanoma,8.94 µM
same,GI50,SF-268 CNS,2.54 µM
same,TGI,SF-268 CNS,6.33 µM
same,GI50,A549 NSCLC,2.85 µM
same,TGI,A549 NSCLC,9.01 µM
same,GI50,HL-60(TB) leukemia,0.598 µM
same,TGI,HL-60(TB) leukemia,2.67 µM
same,GI50,MCF7 breast,1.29 µM
same,TGI,MCF7 breast,4.39 µM
same,GI50,SK-MEL-28 melanoma,1.86 µM
same,TGI,SK-MEL-28 melanoma,8.55 µM
